Measured values as given in patent US20230107941A1, “HEPATITIS B CAPSID ASSEMBLY MODULATORS” (Venatorx Pharmaceuticals, Inc., priority 2019, published 2023).
Where two headings read alike, the source gives them in different places.

Columns and labels:
HBV = experiment: In vitro antiviral assay: anti-HBV replication in HepAD38 cells (extracellular HBV DNA by QPCR); assay type: cell-based, hepatitis B virus (genotype D, serotype ayw); details: 7 days incubation, extracellular HBV DNA by QPCR, read-out: Anti-HBV EC50
Outline: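 Read-out is extracellular HBV DNA (copies/mL, QPCR standard curve) after 7-day exposure of tet-free HepAD38 cells to 10-fold dilutions from 1 μM down to 10 pM. Values normalised to DMSO vehicle; EC50 from 4-parameter nonlinear regression, with entecavir validating each run.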

[1] = In vitro cytotoxicity assay (MTT cell viability) in HepG2 cells; assay type: cell-based, human; details: human
Outline: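 CC50 was derived by 4-parameter fit of viability relative to vehicle controls, measured as MTT formazan absorbance at 492 nm after 3–4 h of reagent and DMSO solubilization. Before that, HepG2 cells seeded overnight at 20,000/well were incubated 7 days at 37°C with compound from 30 μM down to 1.0 nM in half-log steps.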

[2] = Hepatitis B virus, HePAD38, 168 h

Compound `CCC1(NC(=O)C(=O)c2c(C)c(C(=O)Nc3ccc(F)c(C)c3)c(C)n2C)CCN(c2nccs2)CC1` [Example 43, 5-(2-((4-ethyl-1-(thiazol-2-yl)piperidin-4-yl)amino)-2-oxoacetyl)-N-(4-fluoro-3-methylphenyl)-1,2,4-trimethyl-1H-pyrrole-3-carboxamide] has an EC50 (HBV; [2]) of under 50 nM and a CC50 at 7 days [1] of 5000 to 30000 nM.
Work on `Cc1cc(NC(=O)c2c(C)c(C(=O)C(=O)N[C@]3(C)CC[C@H](O)CC3)n(C)c2C2CCCC2)ccc1F` [Example 133, 2-cyclopentyl-N-(4-fluoro-3-methylphenyl)-5-(2-(((1s,4s)-4-hydroxy-1-methylcyclohexyl)amino)-2-oxoacetyl)-1,4-dimethyl-1H-pyrrole-3-carboxamide] yielded an EC50 (HBV; [2]) of under 50 nM and a CC50 at 7 days [1] of over 30000 nM.
Work on `Cc1c(C(=O)Nc2ccc(B(O)O)cc2)c(C)n(C)c1C(=O)C(=O)NC(C)(C)C` [Example 45, (4-(5-(2-(tert-butylamino)-2-oxoacetyl)-1,2,4-trimethyl-1H-pyrrole-3-carboxamido)phenyl)boronic acid] yielded an EC50 (HBV; [2]) of 500 to 1000 nM and a CC50 at 7 days [1] of over 30000 nM.
For `Cc1cc(NC(=O)c2c(C)c(C(=O)C(=O)N[C@H]3[C@@H]4CC[C@@H](C4)[C@H]3CO)n(C)c2C)ccc1F` [Example 20, N-(4-fluoro-3-methylphenyl)-5-(2-(((1R,2S,3R,4S)-3-(hydroxymethyl)bicyclo[2.2.1]heptan-2-yl)amino)-2-oxoacetyl)-1,2,4-trimethyl-1H-pyrrole-3-carboxamide], the EC50 (HBV; [2]) was under 50 nM and the CC50 at 7 days [1] was over 30000 nM.
`Cc1cc(NC(=O)c2c(C)c(C(=O)C(=O)N[C@H]3CC[C@@H](O)CC3)n(C)c2-c2cccnc2)ccc1F` [Example 153, N-(4-fluoro-3-methylphenyl)-5-(2-(((1s,4s)-4-hydroxycyclohexyl)amino)-2-oxoacetyl)-1,4-dimethyl-2-(pyridin-3-yl)-1H-pyrrole-3-carboxamide] showed an EC50 (HBV; [2]) of over 1000 nM and a CC50 at 7 days [1] of over 30000 nM.
With `CC(=O)N1CC[C@H](NC(=O)C(=O)c2c(C)c(C(=O)Nc3ccc(F)c(C)c3)c(C)n2C)C[C@@H]1C` [Example 166, 5-(2-(((2S,4S)-1-acetyl-2-methylpiperidin-4-yl)amino)-2-oxoacetyl)-N-(4-fluoro-3-methylphenyl)-1,2,4-trimethyl-1H-pyrrole-3-carboxamide] the EC50 (HBV; [2]) was 50 to 499 nM and the CC50 at 7 days [1] was over 30000 nM.
`Cc1cc(NC(=O)c2c(C)c(C(=O)C(=O)N[C@]3(C4CC4)CC[C@@H](O)CC3)n(C)c2C)ccc1F` [Example 3, 5-(2-(((1r,4r)-1-cyclopropyl-4-hydroxycyclohexyl)amino)-2-oxoacetyl)-N-(4-fluoro-3-methylphenyl)-1,2,4-trimethyl-1H-pyrrole-3-carboxamide] gave an EC50 (HBV; [2]) of under 50 nM and a CC50 at 7 days [1] of over 30000 nM.
For `Cc1cc(NC(=O)c2c(C)c(C(=O)C(=O)NC3(C)CC(OP(=O)(O)O)C3)n(C)c2C)ccc1F` (centres unmarked) [Example 63, (1s,3s)-3-(2-(4-((4-fluoro-3-methylphenyl)carbamoyl)-1,3,5-trimethyl-1H-pyrrol-2-yl)-2-oxoacetamido)-3-methylcyclobutyl dihydrogen phosphate], the EC50 (HBV) was over 1000 nM and the CC50 at 7 days [1] was over 30000 nM.
`Cc1cc(F)cc(NC(=O)c2c(C)c(C(=O)C(=O)NC(C)(C)C)n(C)c2C)c1` [Example 67, 5-(2-(tert-butylamino)-2-oxoacetyl)-N-(3-fluoro-5-methylphenyl)-1,2,4-trimethyl-1H-pyrrole-3-carboxamide] gave an EC50 (HBV; [2]) of under 50 nM and a CC50 at 7 days [1] of over 30000 nM.
With `Cc1cc(NC(=O)c2c(C)c(C(=O)C(=O)NC3(C)CCCN(C(=O)Nc4ccc(F)c(F)c4)C3)n(C)c2C)ccc1F` (centres unmarked) [Example 49, N-(3,4-difluorophenyl)-3-(2-(4-((4-fluoro-3-methylphenyl)carbamoyl)-1,3,5-trimethyl-1H-pyrrol-2-yl)-2-oxoacetamido)-3-methylpiperidine-1-carboxamide] the EC50 (HBV; [2]) was 50 to 499 nM and the CC50 at 7 days [1] was over 30000 nM.
